“Also recorded” adds a separate entry of the source. Read-outs that look alike come from different tables or passages of the source.
Assays:
MN axons = format: cell-based, mouse
HB9::GFP MN axons = format: cell-based, mouse
[1] = system: G3BP1 aggregates in midbrain neurons; assay: Endogenous G3BP1 aggregates in MPP+-treated midbrain neurons; format: cell-based, rat; details: MPP+ alone
Description: Given that the G3BP1 190-208 peptide prevents degeneration induced by treatment with neurotoxins such as MPP+ and Aβ oligomer and decreases G3BP1 aggregates formed due MPP+ and Aβ treatment.
(A) Size of endogenous G3BP1 aggregates per 100 μm of neurite is shown as indicated bins from midbrain cultures under control conditions and after treatment with MPP+alone or with 190-208 G3BP1 or 168-189 peptides. (B) Size distribution of endogenous G3BP1 aggregates per 100 μm of neurite is shown from cortical neurons treated with 1 μM Aβpeptide or with […] 190-208 G3BP1 or 168-189 control peptide. Non-treated neurons were used as a control. […] (N≥90 over 3 cultures; by two-way ANOVA with Tukey HSD post-hoc).

[2] = system: G3BP1, TIA1, FMRP, FXR, TDP43 and FUS-TLS aggregates in E18 midbrain neurons; assay: RNA binding protein aggregates along axons of MPP+-treated midbrain neurons; format: cell-based, rat; details: 100 μM MPP+ 6 hours
Protocol: FIGS. 14A-14F show PD-causing MPP^+ increases RNA binding protein aggregation. Representative confocal images for G3BP1 (magenta), FMRP (green), FXR (red) and neurofilament immunoreactivity along axons for E18 midbrain neuron cultures (7 DIV)±100 μM MPP^+ for 6 hours are shown in FIG. 14A. […] Quantifications for colocalization of FMRP, FXR, TDP43, FUS-TLS and TIA1 with G3BP1 in axons of E18 midbrain neurons treated. as in FIG. 14A are shown as average Pearson's coefficient±SEM shown in FIG. 14E.

[3] = system: G3BP1 aggregates in E12.5 motor neurons; assay: Endogenous G3BP1 aggregates in MPP+-treated motor neurons; format: cell-based, mouse; details: 100 μM MPP+ alone vs control
Protocol: Previous studies have shown that, exposure of midbrain neurons results in formation of stress granules. To test whether treatment of motor neurons with mitotoxin MPP+ results in the formation of stress granules the inventors stained the MPP+-treated neurons for G3BP1 protein.
(A) Quantification of mitotoxin/neurotoxin MPP+-induced degeneration of DIV7 E12.5 motor neuron neurites after exposure of cultures to 100 μM MPP+ and either 10 μM 190-208 G3BP1 or 168-189 control peptide. As controls, neurons treated with solvents were used. (B) Representative images of G3BP1 (green) and NF-labeled (red) E12.5 motor neurons under control or after treatment with 100 μM MPP+ [scale bar=10 μm]. (C) distribution of sizes of endogenous G3BP1 aggregate per 100 μm neurite is shown as indicated bins from motor neurons cultures as treated in (B). (N≥80 neurites over three repetitions; by one-way ANOVA with Tukey HSD post-hoc). […] (D) Endogenous G3BP1 aggregate sizes per 100 μm neurite indicated as bins for motor neurons either untreated or treated with MPP+ alone or with addition of 10 μM 190-208 G3BP1 or 168-189 control peptide. […] (N≥90 over 3 cultures; by one-way ANOVA with Tukey HSD post-hoc)

DRG neurons = assay: Axon growth in dissociated DRG cultures; format: cell-based, rat; details: 10 μM Tat-fused peptide added to DRG cultures immediately after plating
Protocol: Cell culture. For primary neuronal cultures, L4-5 DRG were harvested in Hybernate-A medium (BrainBits) and then dissociated as described. After centrifugation and washing in DMEM/F12 (Life Technologies), cells were resuspended in DMEM/F12, 1×N1 supplement (Sigma), 10% fetal bovine serum (Hyclone), and 10 μM cytosine arabinoside (Sigma). Dissociated DRGs were plated immediately on laminin/poly-L-lysine-coated coverslips or transfected (see below) and then plated on coated coverslips.
[…] Neurite outgrowth was assessed 24 h after addition of peptides. For the cortical cultures, 10 μM peptide was applied to the axonal compartment at 3 d in vitro (DIV) and axonal growth was assessed at 6 DIV. For iMotor neurons, 20 μM peptides were immediately added and neurite growth was assessed 24 h later.
For neurite outgrowth, images from 60 h DRG cultures were analyzed for neurite outgrowth using WIS-Neuromath. Axon morphology was visualized using GFP and/or NF immunofluorescence as described. Differentiated hiPSC neuron image acquisition and neurite length quantification was performed using Arrayscan XTI (Thermo Fisher).

[4] = system: TIA1, G3BP1 and TDP43 granules in E12.5 motor neurons; assay: Stress granule protein granules in neurites of arsenite-treated motor neurons; format: cell-based, mouse
Description: To further evaluate whether mutant TIA1 and TDP43 protein aggregates are affected by G3BP1 190-208 peptide, the inventors expressed the mutant proteins in embryonic motor neurons and assessed granules formed in neurites with or without arsenite treatment either in the presence of G3BP1 190-208 or control 168-189 peptide.
FIG. 6: Cell permeable G3BP1 190-208 peptide decreases granules formed by endogenous TIA1 and TDP43 and exogenous TDP43 and TIA1 mutants in motor neurons after sodium arsenite exposure. (A) Embryonic motor neurons isolated from E12.5 mouse embryos were exposed to sodium arsenite (0.5 mM) for 30 minutes and then treated with 10 μM 190- 208 or […] peptide. After fixation endogenous TIA1 was visualized by immunostaining. The number of TIA1 granules greater than 2 μm^2 per 100 μm of neurite were measured. (B) E12.5 motor neurons were treated as described in (A) and immunostaining was used to detect endogenous G3BP1 protein. The number of G3BP1 granules greater than 2 μm^2 per 100 μm of neurite were measured. […] (C) E12.5 motor neurons expressing TIA1-GFT or ALS/FTD-associated mutants TIA1-A381T, TIA1-E384K were treated with sodium arsenite (0.5 mM) for 30 minutes followed by treatment with either 10 μM 190-208 G3BP1 or 168-189 control peptide. The number of cells containing TIA1-GFP puncta were measured 2 μm^2 per 100 μm of neurite and results are reported relative to non-treated controls. The number of TIA1-GFP granules in neurites decreased for WT and ALS/FTD mutants after treatment with 190-208 G3BP1 as compared to the 168-189 control peptide treated cells. (I)) E12.5 motor neurons expressing flag-tagged wildtype TDP43 or ALS-associated mutants TDP43-M337V and TDP43-Q331.K were treated with sodium arsenite (0.5 mM) for 30 minutes followed by treatment with either 10 μM 190-208 G3BP1 or 168189 control peptide. Flag-TDP43 was detected by immunostaining using the anti-flag-antibody. The number of flag-TDP43 granules greater than 2 μm^2 were measured per 100 μm of neurite and the results are reported relative to non-treated controls. The number of Flag-TDP43 granules in neurites were decreased after treatment with 190-208 G3BP1 peptide as compared to the 168-189 control peptide in both WT and ALS/FTD mutants expressing cells. ([…] over 3 cultures; by two-way ANOVA with Tukey HSD post-hoc),

[5] = system: wild-type or ALS/FTD-associated mutant (P362L, A381T, E384K) TIA1-GFP in HEK cells; assay: TIA1-GFP aggregates in arsenite-treated HEK cells; format: cell-based
Description: The inventors tested whether the G3BP1 190-208 peptide would prevent the aggregation of granules formed by TIA1 and TDP43 mutant proteins associated with ALS and FTD. […] Next, we treated HEK cells expressing wild-type and or ALS/FTD-associated mutants (P362L, A381T, or E384K)TIA1, with arsenite a potent inducer of SG aggregation, in addition to either G3BP1 190-208 peptide or control G3BP1 168-189 peptide.
FIG. 5: Cell permeable G3BP1 190-208 peptide decreases TIA1-GFP puncta formed due to expression of disease causing TIA1 mutants. (A) Representative images of HEK cells transfected with GFP-tagged wild-type or ALS/FTD-associated mutants (P362L, A381T, or E384K) TIA1. Arrows show TIA1-GFP puncta. (B) Quantification of the percentage of cells with TIA1-GFP puncta greater than 2 μm^2 area in transfected cells relative TIA1-WT-GFP expressing cells. Consistent with previous studies, ALS/FTD- associated TIA1 mutants show increased number of TIA1-GFP puncta as compared to WT-TIA1. (C) HEK cells expressing TIA1-GFP or ALS/FTD-associated mutants TIA1-P362L, TIA1-A381T, TIA1-E384K were treated with sodium arsenite (0.5 mM) for 30 minutes followed by treatment with either 10 μM 190-208 G3BP1 or 168-189 control peptide. The number of cells containing TIA1-GFP puncta were measured and results are reported relative to non-treated controls. Number of HEK cells with TIA1-GFP granules both for WT and ALS/FTD mutants decreased after treatment with 10 μM 190-208 G3BP1 as compared to the 168-189 control peptide treated cells. (N≥90 over 3 cultures; by two-way ANOVA with Tukey HSD post-hoc). Scale bar: 20 μm.

[6] = system: G3BP1-mCherry aggregates in DRG axons; assay: Live cell imaging of G3BP1-mCherry granules; format: cell-based, rat; details: 10 μM peptide, 15 min
Protocol: Live cell imaging for G3BP1-mCherry granules. DRG neurons were transfected with G3BP1-mCherry, and 36 h later distal axons were imaged using Leica SP8X confocal microscope with environmental chamber maintained at 37° C., 5% CO2 (with 63×/1.4 NA oil immersion objective). G3BP1-mCherry signals were imaged as single optical planes in the axon shaft every 2 s for 100 frames (at 540 nm excitation and 23% white light laser power; 565-597 nm emission). To study the effect of the G3BP1 190-208 or 168-189 peptide, 10 μM FITC-conjugated peptide was added to the media and 15 min later imaging was continued.
For quantitation of G3BP1-mCherry aggregates density and size, a 100 μm of the axon shaft was considered (≥200 μm from cell body). Thresholding was applied to acquired image sequences using ImageJ to generate binary masks.
ImageJ particle analyzer was used for analysis. G3BP1 aggregates with area≥1 μm^2 were considered as SG-like structures. For analyzing the G3BP1 aggregate velocity, ImageJ Trackmate plug-in was used.

[7] = applied exclusively in axons, NaAsO2 250 μM, Anisomycin 40 μM, Cycloheximide 150 μM
[8] = local axonal administration, Anisomycin 40 μM, Cycloheximide 150 μM, NaAsO2 250 μM

Compound: COc1ccc(C[C@H]2NC[C@H](O)[C@H]2OC(C)=O)cc1 [Anisomycin]
- axonal translation (OPP puncta) (MN axons; [7]): major decrease in axonal translation
- mitochondrial membrane potential (TMRE) (HB9::GFP MN axons; [8]): notable reduction in mitochondrial membrane potential

Compound: C[C@@H]1C[C@@H]([C@H](O)CC2CC(=O)NC(=O)C2)C(=O)[C@@H](C)C1 [Cycloheximide]
- axonal translation (OPP puncta) (MN axons; [7]): major decrease in axonal translation
- mitochondrial membrane potential (TMRE) (HB9::GFP MN axons; [8]): notable reduction in mitochondrial membrane potential

Compound: C[n+]1ccc(-c2ccccc2)cc1 [MPP+, 1-methyl-4-phenylpyridinium, reference compound]
- endogenous G3BP1 aggregates [1]: increase in endogenous G3BP1 aggregates
- TIA1, FMRP, FXR, TDP43 and FUS-TLS colocalization with G3BP1 [2]: significant increase
- aggregate sizes of G3BP1, TIA1, FMRP, FXR, TDP43 and FUS-TLS along axons [2]: significantly increases the aggregate sizes
- overall levels of these proteins [2]: without any change in overall levels
- endogenous G3BP1 aggregates [3]: increase in G3BP1 aggregates; also recorded: formation of larger G3BP1 granules

Compound: DDSGTFYDQTVSNDLEEHLEEP-YGNKKNNQNNN [168-189 peptide, reference compound]
- axon length (DRG neurons): lacked activity
- number of large TIA1-GFP granules (>2 μm^2) in neurites ([4]; WT and mutant TIA1-GFP, sodium arsenite 0.5 mM 30 minutes, then 10 μM peptide): no such effect
- size of TIA1 aggregates ([5]; sodium arsenite 0.5 mM 30 minutes, then 10 μM peptide, WT and mutant TIA1): no such change in aggregate size
- density of axonal G3BP1-mCherry aggregates along 100 μm axon [6]: no change in SG density
- size of G3BP1-mCherry aggregates (SG-like structures) [6]: modest but insignificant decrease in SG size

Compound: EESEEEVEEPEENQQSPEVV-YGNKKNNQNNN (EESEEEVEEPEENQQSPEVVYGNKKNNQNNN; listed as Rattus norvegicus) [147-166, cell-permeable Tat fusion peptide corresponding to residues 147-166 of rat G3BP1]
- axon length (DRG neurons): increased axon length

Compound: sodium arsenite [NaAsO2, reference compound]
- axonal translation (OPP puncta) (MN axons): major decrease in axonal translation
- size of endogenous TIA1 and G3BP1 aggregates ([4]; arsenite alone): increase in the size of endogenous TIA1 and G3BP1 aggregates
- number of larger TIA1-GFP granules (>2 μm^2) ([4]; arsenite alone, WT and mutant TIA1-GFP): increase in the number of larger granules
- number of large flag-TDP43 aggregates (>2 μm^2) ([4]; arsenite alone, WT and mutant flag-TDP43): increased number of large flag-TDP43 aggregates
- size of TIA1 aggregates ([5]; sodium arsenite 0.5 mM alone, WT and mutants): increases size of TIA1 aggregates
- mitochondrial membrane potential (TMRE) (HB9::GFP MN axons): notable reduction in mitochondrial membrane potential

Source: US20230190887A1, “TARGETING G3BP AGGREGATION TO PREVENT NEURODEGENERATION” (priority 2019, published 2023)
